Test results as given in ChEMBL document CHEMBL4002545, “Design, synthesis and antimicrobial evaluation of novel benzoxazole derivatives” (2017).
Converted amounts (≈) assume the structure as drawn.

Tests used:
Staphylococcus aureus [1] = assay: Anti-bacterial activity against methicillin-resistant Staphylococcus aureus ATCC 700699 measured after 24 hrs by microtiter broth dilution method; assay type: functional; conditions: Mu50, 24 h
Bacillus subtilis [2] = assay: Anti-bacterial activity against Bacillus subtilis ATCC 33712 measured after 24 hrs by microtiter broth dilution method; assay type: functional; conditions: ATCC 33712, 24 h
Staphylococcus aureus [3] = assay: Anti-bacterial activity against Staphylococcus aureus ATCC 10832 measured after 24 hrs by microtiter broth dilution method; assay type: functional; conditions: ATCC 10832, 24 h
Escherichia coli = assay: Anti-bacterial activity against Escherichia coli ATCC 11303 measured after 24 hrs by microtiter broth dilution method; assay type: functional; conditions: ATCC 11303, 24 h
Candida albicans = assay: microbe, parasite or virus in culture; assay type: functional; conditions: ATCC 10231, 24 h
Description: Anti-fungal activity against Candida albicans ATCC 10231 measured after 24 hrs by microtiter broth dilution method

Bacillus subtilis [4] = assay: Potency index, ratio of Cefradine MIC to compound MIC for anti-bacterial activity against Bacillus subtilis ATCC 33712
Bacillus subtilis [5] = assay: Potency index, ratio of sodium penicillin IC50 to compound IC50 for anti-bacterial activity against Bacillus subtilis ATCC 33712; assay type: functional
Bacillus subtilis [6] = assay: Potency index, ratio of ceftazidime IC50 to compound IC50 for anti-bacterial activity against Bacillus subtilis ATCC 33712; assay type: functional
Bacillus subtilis [7] = assay: Potency index, ratio of Cefotaxime IC50 to compound IC50 for anti-bacterial activity against Bacillus subtilis ATCC 33712; assay type: functional

Cc1oc(-c2ccccc2)nc1CCCc1nc2cc(C[C@H](Oc3ccc(C(C)(C)C)cc3)C(=O)O)ccc2o1
MIC (Staphylococcus aureus [1]): 1.56 µg/mL (≈ 2.9 µM)
MIC (Bacillus subtilis [2]): 3.12 µg/mL (≈ 5.79 µM)
MIC (Staphylococcus aureus [3]): 1.56 µg/mL (≈ 2.9 µM)
MIC (Escherichia coli): 3.12 µg/mL (≈ 5.79 µM)
MIC (Candida albicans): > 200 µg/mL

CC(C)(C)c1ccc(O[C@@H](Cc2ccc3oc(CCc4cn5cc(C(F)(F)F)ccc5n4)nc3c2)C(=O)O)cc1
MIC (Staphylococcus aureus [1]): 25 µg/mL (≈ 45.3 µM)
MIC (Bacillus subtilis [2]): 50 µg/mL (≈ 90.7 µM)
MIC (Staphylococcus aureus [3]): 50 µg/mL (≈ 90.7 µM)
MIC (Escherichia coli): > 200 µg/mL
MIC (Candida albicans): > 200 µg/mL

CCCCCCCc1nc2cc(C[C@H](Oc3ccc(C(C)(C)C)cc3)C(=O)O)ccc2o1
MIC (Staphylococcus aureus [1]): 1.56 µg/mL (≈ 3.57 µM)
MIC (Bacillus subtilis [2]): 0.78 µg/mL (≈ 1.78 µM)
MIC (Staphylococcus aureus [3]): 0.78 µg/mL (≈ 1.78 µM)
MIC (Escherichia coli): 1.56 µg/mL (≈ 3.57 µM)
MIC (Candida albicans): > 200 µg/mL

Cc1oc(-c2ccccc2)nc1CCc1nc2cc(C[C@H](Oc3ccc(C(C)(C)C)cc3)C(=O)O)ccc2o1
MIC (Staphylococcus aureus [1]): 0.78 µg/mL (≈ 1.49 µM)
MIC (Bacillus subtilis [2]): 0.78 µg/mL (≈ 1.49 µM)
MIC (Staphylococcus aureus [3]): 1.56 µg/mL (≈ 2.97 µM)
MIC (Escherichia coli): 1.56 µg/mL (≈ 2.97 µM)
MIC (Candida albicans): > 200 µg/mL

CC(C)c1ccc(CCc2nc3cc(C[C@H](Oc4ccc(C(C)(C)C)cc4)C(=O)O)ccc3o2)cc1
MIC (Staphylococcus aureus [1]): 0.195 µg/mL (≈ 0.402 µM)
MIC (Bacillus subtilis [2]): 0.098 µg/mL (≈ 0.202 µM)
Ratio MIC (Bacillus subtilis [4]): 8 - 510
MIC (Staphylococcus aureus [3]): 0.39 µg/mL (≈ 0.803 µM)
MIC (Escherichia coli): 0.78 µg/mL (≈ 1.61 µM)
Ratio IC50 (Bacillus subtilis [5]): 2
MIC (Candida albicans): > 200 µg/mL
Ratio IC50 (Bacillus subtilis [6]): 8 - 510
Ratio IC50 (Bacillus subtilis [7]): 8 - 510

CC(C)(C)c1ccc(O[C@@H](Cc2ccc3oc(CCc4ncco4)nc3c2)C(=O)O)cc1
MIC (Staphylococcus aureus [1]): 200 µg/mL (≈ 460 µM)
MIC (Bacillus subtilis [2]): 200 µg/mL (≈ 460 µM)
MIC (Staphylococcus aureus [3]): > 200 µg/mL
MIC (Escherichia coli): > 200 µg/mL
MIC (Candida albicans): > 200 µg/mL

CC(C)(C)c1ccc(O[C@@H](Cc2ccc3oc(CC4CCOCC4)nc3c2)C(=O)O)cc1
MIC (Bacillus subtilis [2]): 200 µg/mL (≈ 457 µM)
MIC (Escherichia coli): > 200 µg/mL
MIC (Candida albicans): > 200 µg/mL

COc1cc(CCc2nc3cc(C[C@H](Oc4ccc(C(C)(C)C)cc4)C(=O)O)ccc3o2)cc(OC)c1OC
MIC (Staphylococcus aureus [1]): 100 µg/mL (≈ 187 µM)
MIC (Bacillus subtilis [2]): 100 µg/mL (≈ 187 µM)
MIC (Staphylococcus aureus [3]): 100 µg/mL (≈ 187 µM)
MIC (Escherichia coli): 200 µg/mL (≈ 375 µM)
MIC (Candida albicans): > 200 µg/mL

CC(C)Cc1nc2cc(C[C@H](Oc3ccc(C(C)(C)C)cc3)C(=O)O)ccc2o1
MIC (Bacillus subtilis [2]): 1.56 µg/mL (≈ 3.94 µM)
MIC (Escherichia coli): 3.12 µg/mL (≈ 7.89 µM)
MIC (Candida albicans): > 200 µg/mL

CC(C)(C)c1ccc(O[C@@H](Cc2ccc3oc(CCc4ccccc4)nc3c2)C(=O)O)cc1
MIC (Staphylococcus aureus [1]): 1.56 µg/mL (≈ 3.52 µM)
MIC (Bacillus subtilis [2]): 0.39 µg/mL (≈ 0.879 µM)
MIC (Staphylococcus aureus [3]): 1.56 µg/mL (≈ 3.52 µM)
MIC (Escherichia coli): 3.12 µg/mL (≈ 7.03 µM)
MIC (Candida albicans): > 200 µg/mL

CC(C)(C)c1ccc(O[C@@H](Cc2ccc3oc(CCc4cc5ccccc5o4)nc3c2)C(=O)O)cc1
MIC (Staphylococcus aureus [1]): 0.78 µg/mL (≈ 1.61 µM)
MIC (Bacillus subtilis [2]): 0.39 µg/mL (≈ 0.807 µM)
MIC (Staphylococcus aureus [3]): 0.78 µg/mL (≈ 1.61 µM)
MIC (Escherichia coli): 0.78 µg/mL (≈ 1.61 µM)
MIC (Candida albicans): > 200 µg/mL

CC(C)(C)c1ccc(O[C@@H](Cc2ccc3oc(CCc4ccc(F)cc4)nc3c2)C(=O)O)cc1
MIC (Staphylococcus aureus [1]): 1.56 µg/mL (≈ 3.38 µM)
MIC (Bacillus subtilis [2]): 0.39 µg/mL (≈ 0.845 µM)
MIC (Staphylococcus aureus [3]): 1.56 µg/mL (≈ 3.38 µM)
MIC (Escherichia coli): 1.56 µg/mL (≈ 3.38 µM)
MIC (Candida albicans): > 200 µg/mL

CO/N=C(\C(=O)N[C@@H]1C(=O)N2C(C(=O)O)=C(COC(C)=O)CS[C@H]12)c1csc(N)n1 [CEFOTAXIME]
MIC (Staphylococcus aureus [1]): 3.12 µg/mL (≈ 6.85 µM)
MIC (Bacillus subtilis [2]): 0.78 µg/mL (≈ 1.71 µM)
MIC (Staphylococcus aureus [3]): 3.12 µg/mL (≈ 6.85 µM)
MIC (Escherichia coli): 200 µg/mL (≈ 439 µM)

CC(C)(O/N=C(\C(=O)N[C@@H]1C(=O)N2C(C(=O)[O-])=C(C[n+]3ccccc3)CS[C@H]12)c1csc(N)n1)C(=O)O [CEFTAZIDIME]
MIC (Staphylococcus aureus [1]): 12.5 µg/mL (≈ 22.9 µM)
MIC (Bacillus subtilis [2]): 6.25 µg/mL (≈ 11.4 µM)
MIC (Staphylococcus aureus [3]): 0.78 µg/mL (≈ 1.43 µM)
MIC (Escherichia coli): 200 µg/mL (≈ 366 µM)

CC1=C(C(=O)O)N2C(=O)[C@@H](NC(=O)[C@H](N)C3=CCC=CC3)[C@H]2SC1 [CEPHRADINE]
MIC (Staphylococcus aureus [1]): 50 µg/mL (≈ 143 µM)
MIC (Bacillus subtilis [2]): 50 µg/mL (≈ 143 µM)
MIC (Staphylococcus aureus [3]): 25 µg/mL (≈ 71.5 µM)
MIC (Escherichia coli): 25 µg/mL (≈ 71.5 µM)

CC(=O)N1CCN(c2ccc(OCC3COC(Cn4ccnc4)(c4ccc(Cl)cc4Cl)O3)cc2)CC1 (stereo not drawn) [KETOCONAZOLE]
MIC (Candida albicans): < 0.39 µg/mL

Clc1ccc(COC(Cn2ccnc2)c2ccc(Cl)cc2Cl)c(Cl)c1.O=[N+]([O-])O (stereo not drawn) [MICONAZOLE NITRATE]
MIC (Candida albicans): 1.56 µg/mL

CC1(C)S[C@@H]2[C@H](NC(=O)Cc3ccccc3)C(=O)N2[C@H]1C(=O)[O-].[Na+] [PENICILLIN G SODIUM]
MIC (Staphylococcus aureus [1]): 3.12 µg/mL
MIC (Bacillus subtilis [2]): 0.195 µg/mL
MIC (Staphylococcus aureus [3]): 3.12 µg/mL
MIC (Escherichia coli): 0.78 µg/mL
